Assay results reported in patent US8415469B2, “Compounds and methods for kinase modulation, and indications therefor” (Plexxikon Inc., priority 2005, dated 2013).

Key:
Format in all cases: biochemical
MAPKAPK2 = target: T1, MAPKAPK2 (Homo sapiens, UniProt P49137); experiment: Z'-Lyte FRET kinase assay (Invitrogen), MAPKAPK2; settings: read-out: IC50, activity toward kinase MAPKAPK2
T1 construct: purchased Invitrogen (assay run by Invitrogen)
Summary of the method: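 Z′-Lyte FRET assay: kinase phosphorylates 2 μM peptide substrate at 10 μM ATP in 50 mM HEPES pH 7.5, 50 mM MgCl2, 5 mM EGTA, 0.05% BRIJ-35, 1% DMSO, 1 h at room temperature. Protease development 1 h; coumarin/fluorescein emission ratio gives phosphorylation extent over compound concentration curves.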

Csk = Csk (Homo sapiens, UniProt P41240); experiment: AlphaScreen kinase assay, Csk; settings: read-out: IC50, activity toward kinase Csk
Csk, sequence (P41240 whole entry): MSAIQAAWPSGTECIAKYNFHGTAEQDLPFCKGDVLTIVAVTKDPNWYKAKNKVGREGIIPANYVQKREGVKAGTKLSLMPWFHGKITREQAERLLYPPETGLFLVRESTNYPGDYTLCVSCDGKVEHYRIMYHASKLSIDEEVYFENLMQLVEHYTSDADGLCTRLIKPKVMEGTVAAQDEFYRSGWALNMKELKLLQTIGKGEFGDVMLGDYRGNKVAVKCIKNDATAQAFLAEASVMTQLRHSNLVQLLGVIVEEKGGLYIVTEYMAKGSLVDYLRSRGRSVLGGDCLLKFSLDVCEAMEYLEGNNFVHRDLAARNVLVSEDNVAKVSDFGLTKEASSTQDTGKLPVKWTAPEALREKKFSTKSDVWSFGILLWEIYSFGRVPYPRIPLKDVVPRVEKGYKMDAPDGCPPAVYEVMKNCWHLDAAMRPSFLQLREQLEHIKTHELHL
Description: (§1) AlphaScreen assay was used to screen additional kinases. The assay is similarly dependent on the phosphorylation of a peptide substrate. In this assay, an antibody that recognizes phosphorylated substrate is bound to an acceptor bead. The peptide substrate is attached to biotin, which binds to a donor head that contains streptavidin. Thus phosphorylated substrate is bound by antibody and streptavidin, bringing the donor and acceptor heads into close proximity when kinase is not inhibited. The donor produces singlet oxygen which results in emission from the acceptor when they are in close proximity. Conversely, when kinase is inhibited, the donor and acceptor beads are not associated and the emission from the acceptor is reduced.
(§2) AlphaScreen assays were done using compounds dissolved in DMSO to a concentration of 20 mM. The compounds were diluted accordingly to the desired final concentrations in each sample well, using 1:3 serial dilution for a total of 8 concentration points.

Frk = Frk (Homo sapiens, UniProt P42685); experiment: AlphaScreen kinase assay, Frk; settings: read-out: IC50, activity toward kinase Frk
Frk, sequence (P42685 whole entry): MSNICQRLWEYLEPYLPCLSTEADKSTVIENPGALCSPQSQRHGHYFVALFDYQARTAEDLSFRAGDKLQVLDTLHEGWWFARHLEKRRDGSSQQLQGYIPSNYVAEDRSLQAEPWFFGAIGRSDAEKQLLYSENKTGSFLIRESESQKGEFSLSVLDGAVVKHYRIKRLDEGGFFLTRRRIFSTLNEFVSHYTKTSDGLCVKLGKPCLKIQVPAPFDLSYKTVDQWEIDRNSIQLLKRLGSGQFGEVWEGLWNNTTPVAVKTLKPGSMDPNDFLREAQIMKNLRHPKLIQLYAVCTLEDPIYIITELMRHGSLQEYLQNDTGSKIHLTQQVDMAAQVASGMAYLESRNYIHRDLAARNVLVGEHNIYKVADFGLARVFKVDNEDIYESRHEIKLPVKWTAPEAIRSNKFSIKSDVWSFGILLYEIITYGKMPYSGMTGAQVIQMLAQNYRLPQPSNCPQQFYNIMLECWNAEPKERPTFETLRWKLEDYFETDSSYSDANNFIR
Summary of the method: (§3)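 Uses phospho-specific antibody on acceptor beads plus streptavidin donor beads capturing biotinylated peptide substrate; singlet oxygen from donor excites nearby acceptor. Inhibitors tested in 8-point, 1:3 titrations starting from 20 mM DMSO solutions.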

Hck = Hck (Homo sapiens, UniProt P08631); experiment: AlphaScreen kinase assay, Hck; settings: read-out: IC50, activity toward kinase Hck
Hck, sequence (P08631 whole entry): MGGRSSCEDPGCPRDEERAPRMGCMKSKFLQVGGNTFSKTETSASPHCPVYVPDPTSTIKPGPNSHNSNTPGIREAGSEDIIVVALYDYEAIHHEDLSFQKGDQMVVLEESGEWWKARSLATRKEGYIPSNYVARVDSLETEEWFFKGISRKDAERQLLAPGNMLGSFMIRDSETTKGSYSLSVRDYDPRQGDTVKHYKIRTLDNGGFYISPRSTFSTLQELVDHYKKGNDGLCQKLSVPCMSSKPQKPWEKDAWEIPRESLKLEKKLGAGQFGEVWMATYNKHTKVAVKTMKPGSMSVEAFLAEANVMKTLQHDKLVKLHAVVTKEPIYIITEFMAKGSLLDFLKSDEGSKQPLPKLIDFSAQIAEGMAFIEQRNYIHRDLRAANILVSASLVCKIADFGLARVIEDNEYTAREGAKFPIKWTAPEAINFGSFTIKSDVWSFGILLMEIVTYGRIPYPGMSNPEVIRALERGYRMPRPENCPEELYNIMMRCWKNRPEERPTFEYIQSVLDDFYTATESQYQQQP
Description: as §1, §2

PDGFRA = PDGFRA (Homo sapiens, UniProt P16234); experiment: AlphaScreen kinase assay, PDGFRA; settings: read-out: IC50, activity toward kinase PDGFRA
PDGFRA, sequence (P16234 24-1089): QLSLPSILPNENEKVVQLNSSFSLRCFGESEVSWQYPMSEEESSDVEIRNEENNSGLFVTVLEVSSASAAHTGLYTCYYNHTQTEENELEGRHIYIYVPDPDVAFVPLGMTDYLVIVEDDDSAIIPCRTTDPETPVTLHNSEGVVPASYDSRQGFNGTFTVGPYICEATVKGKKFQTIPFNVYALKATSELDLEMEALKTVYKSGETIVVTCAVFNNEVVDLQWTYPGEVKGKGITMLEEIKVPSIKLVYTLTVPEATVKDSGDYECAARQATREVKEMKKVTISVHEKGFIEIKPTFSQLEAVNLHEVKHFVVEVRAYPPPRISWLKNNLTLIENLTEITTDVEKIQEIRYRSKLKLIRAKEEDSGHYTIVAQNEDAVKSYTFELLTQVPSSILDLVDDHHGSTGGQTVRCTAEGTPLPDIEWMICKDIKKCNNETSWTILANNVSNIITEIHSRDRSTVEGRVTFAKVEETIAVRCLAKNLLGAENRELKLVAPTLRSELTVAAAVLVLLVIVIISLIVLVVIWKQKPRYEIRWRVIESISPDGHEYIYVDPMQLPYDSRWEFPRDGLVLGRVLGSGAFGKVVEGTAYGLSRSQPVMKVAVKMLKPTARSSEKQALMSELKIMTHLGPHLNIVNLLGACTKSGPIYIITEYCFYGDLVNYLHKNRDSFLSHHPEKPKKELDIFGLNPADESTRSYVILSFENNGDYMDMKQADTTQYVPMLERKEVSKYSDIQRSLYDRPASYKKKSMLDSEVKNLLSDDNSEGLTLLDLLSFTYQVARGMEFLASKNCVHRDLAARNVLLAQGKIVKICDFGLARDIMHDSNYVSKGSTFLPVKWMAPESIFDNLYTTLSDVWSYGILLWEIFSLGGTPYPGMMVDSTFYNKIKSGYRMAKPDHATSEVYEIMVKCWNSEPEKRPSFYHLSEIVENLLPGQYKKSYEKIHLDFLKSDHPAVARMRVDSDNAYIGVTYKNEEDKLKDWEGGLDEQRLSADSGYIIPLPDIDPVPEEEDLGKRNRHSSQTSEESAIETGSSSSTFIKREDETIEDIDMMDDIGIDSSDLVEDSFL
Description: as §1, §2

Brk = Brk (Homo sapiens, UniProt Q13882); experiment: AlphaScreen kinase assay, Brk; settings: read-out: IC50, activity toward kinase Brk
Brk, sequence (Q13882 whole entry): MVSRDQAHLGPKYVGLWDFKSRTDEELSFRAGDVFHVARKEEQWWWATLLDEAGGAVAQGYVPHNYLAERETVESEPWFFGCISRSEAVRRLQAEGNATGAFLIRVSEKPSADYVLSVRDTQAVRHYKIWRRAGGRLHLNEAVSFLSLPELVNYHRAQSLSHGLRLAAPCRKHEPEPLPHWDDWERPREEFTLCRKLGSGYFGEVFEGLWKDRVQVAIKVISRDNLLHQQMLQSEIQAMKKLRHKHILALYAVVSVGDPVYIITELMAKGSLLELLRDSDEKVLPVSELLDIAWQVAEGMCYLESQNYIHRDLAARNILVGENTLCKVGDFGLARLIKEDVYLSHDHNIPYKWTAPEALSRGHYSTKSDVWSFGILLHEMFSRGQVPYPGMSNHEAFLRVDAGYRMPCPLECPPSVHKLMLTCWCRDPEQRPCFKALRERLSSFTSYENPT
Summary of the method: as §3

Zap70 = target: T2, Zap70 (Homo sapiens, UniProt P43403); experiment: AlphaScreen kinase assay, Zap70; settings: read-out: IC50, activity toward kinase Zap70
T2 construct: P1868.pFastBac1 ZAP70 D327-G606 HIS, WT; His7 (HHHHHHH) (C); made in house
T2 sequence (P43403 with tags, fused parts or gaps): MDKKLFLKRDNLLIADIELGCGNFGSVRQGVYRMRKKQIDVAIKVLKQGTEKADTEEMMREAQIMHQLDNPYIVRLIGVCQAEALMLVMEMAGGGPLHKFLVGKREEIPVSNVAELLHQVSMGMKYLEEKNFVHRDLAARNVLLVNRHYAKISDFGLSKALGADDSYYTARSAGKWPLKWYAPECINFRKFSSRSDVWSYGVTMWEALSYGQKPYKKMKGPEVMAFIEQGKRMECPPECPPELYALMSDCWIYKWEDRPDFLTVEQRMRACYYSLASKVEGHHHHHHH
Summary of the method: as §3

Plk1 = Plk1 (Homo sapiens, UniProt P53350); experiment: AlphaScreen kinase assay, Plk1; settings: read-out: IC50, activity toward kinase Plk1
Summary of the method: as §3

ALK = ALK (Homo sapiens, UniProt Q9UM73); experiment: AlphaScreen kinase assay, ALK; settings: read-out: IC50, activity toward kinase ALK
ALK, sequence (Q9UM73 19-1620): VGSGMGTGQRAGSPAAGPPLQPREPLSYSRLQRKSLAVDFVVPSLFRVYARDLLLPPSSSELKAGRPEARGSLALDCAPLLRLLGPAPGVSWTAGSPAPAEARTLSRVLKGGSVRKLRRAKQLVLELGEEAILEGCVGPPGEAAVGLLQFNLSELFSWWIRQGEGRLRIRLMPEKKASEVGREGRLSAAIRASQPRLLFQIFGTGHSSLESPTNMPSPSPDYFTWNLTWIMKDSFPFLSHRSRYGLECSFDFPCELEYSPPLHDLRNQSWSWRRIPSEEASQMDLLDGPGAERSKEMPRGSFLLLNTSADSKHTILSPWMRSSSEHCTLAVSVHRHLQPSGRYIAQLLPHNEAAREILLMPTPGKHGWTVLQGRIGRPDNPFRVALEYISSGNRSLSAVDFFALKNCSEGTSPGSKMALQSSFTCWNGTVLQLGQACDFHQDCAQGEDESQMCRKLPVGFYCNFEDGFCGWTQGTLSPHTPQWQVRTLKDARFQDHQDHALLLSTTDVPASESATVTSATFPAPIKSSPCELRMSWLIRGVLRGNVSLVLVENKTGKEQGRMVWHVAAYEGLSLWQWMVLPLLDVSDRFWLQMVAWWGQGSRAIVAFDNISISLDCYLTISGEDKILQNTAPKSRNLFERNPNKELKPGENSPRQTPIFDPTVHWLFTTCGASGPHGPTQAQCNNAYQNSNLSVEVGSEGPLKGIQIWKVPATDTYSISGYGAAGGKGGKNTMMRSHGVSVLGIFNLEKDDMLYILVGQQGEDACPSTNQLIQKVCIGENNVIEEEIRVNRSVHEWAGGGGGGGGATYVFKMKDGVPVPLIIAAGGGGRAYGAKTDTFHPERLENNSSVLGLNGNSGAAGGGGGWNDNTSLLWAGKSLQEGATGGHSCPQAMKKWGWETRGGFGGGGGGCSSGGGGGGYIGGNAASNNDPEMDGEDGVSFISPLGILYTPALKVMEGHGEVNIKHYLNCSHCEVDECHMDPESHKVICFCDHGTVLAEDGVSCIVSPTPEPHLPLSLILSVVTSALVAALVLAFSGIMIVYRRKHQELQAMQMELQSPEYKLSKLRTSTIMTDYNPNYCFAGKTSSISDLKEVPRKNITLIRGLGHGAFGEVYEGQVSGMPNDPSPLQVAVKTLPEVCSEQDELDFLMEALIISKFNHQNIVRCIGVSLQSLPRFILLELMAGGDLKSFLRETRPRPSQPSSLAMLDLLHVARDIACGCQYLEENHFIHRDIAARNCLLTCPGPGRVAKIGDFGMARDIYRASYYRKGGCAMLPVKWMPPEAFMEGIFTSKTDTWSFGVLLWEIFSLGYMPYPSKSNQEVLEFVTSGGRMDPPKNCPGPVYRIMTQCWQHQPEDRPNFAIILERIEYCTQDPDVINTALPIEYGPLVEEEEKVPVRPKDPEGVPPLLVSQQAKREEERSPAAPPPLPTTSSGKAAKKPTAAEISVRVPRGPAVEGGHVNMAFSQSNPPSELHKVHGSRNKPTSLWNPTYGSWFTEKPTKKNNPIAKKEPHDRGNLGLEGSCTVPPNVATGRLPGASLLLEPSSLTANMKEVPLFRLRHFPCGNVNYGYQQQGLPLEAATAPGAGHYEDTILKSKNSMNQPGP
Description: as §1, §2

Tie2 = Tie2 (Homo sapiens, UniProt Q02763); experiment: AlphaScreen kinase assay, Tie2; settings: read-out: IC50, activity toward kinase Tie2
Description: as §1, §2

T1 sequence (P49137 whole entry): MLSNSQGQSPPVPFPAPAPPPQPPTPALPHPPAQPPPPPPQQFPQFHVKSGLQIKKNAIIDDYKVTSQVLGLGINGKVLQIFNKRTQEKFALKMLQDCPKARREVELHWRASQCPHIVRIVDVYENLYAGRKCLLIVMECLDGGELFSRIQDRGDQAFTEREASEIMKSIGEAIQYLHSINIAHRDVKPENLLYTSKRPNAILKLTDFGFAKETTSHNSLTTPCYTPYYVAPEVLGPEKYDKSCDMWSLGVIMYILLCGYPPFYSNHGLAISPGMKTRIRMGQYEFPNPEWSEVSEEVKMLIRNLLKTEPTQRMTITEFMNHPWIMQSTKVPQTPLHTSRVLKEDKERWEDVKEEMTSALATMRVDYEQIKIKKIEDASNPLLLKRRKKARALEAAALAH

CCCS(=O)(=O)Nc1ccc(F)c(C(=O)c2c[nH]c3ncccc23)c1F [Compound P-0007, Propane-1-sulfonic acid [2,4-difluoro-3-(1H-pyrrolo[2,3-b]pyridine-3-carbonyl)-phenyl]-amide] showed an IC50 (MAPKAPK2) of no more than 10 µM, an IC50 (Csk) of no more than 10 µM and an IC50 (Frk) of no more than 10 µM. For the same compound, the IC50 (Hck) was no more than 10 µM, the IC50 (PDGFRA) was no more than 10 µM and the IC50 (Brk) was no more than 10 µM.
Compound CC(=O)Nc1cccc(-c2cnc3[nH]cc(C(=O)c4cc(O)ccc4F)c3c2)c1 [Compound P-0001] has an IC50 (Zap70) of no more than 10 µM.
O=C(O)/C=C/c1cccc(-c2cnc3[nH]cc(C(=O)c4ccccc4F)c3c2)c1 [Compound P-0033] was tested, and the IC50 (Zap70) was no more than 10 µM.
O=C(c1cccc(O)c1F)c1c[nH]c2ncc(Br)cc12 [Compound P-0067, (5-bromo-1H-pyrrolo[2,3-b]pyridin-3-yl)-(2-fluoro-3-hydroxy-phenyl)-methanone] was tested, and the IC50 (Plk1) was no more than 10 µM.
In the case of COc1ccc(C(=O)c2c[nH]c3ncc(-c4cccc(/C=C/C(=O)O)c4)cc23)c(Cl)c1 [Compound P-0015], the IC50 (Zap70) is reported as no more than 10 µM.
Cn1cc(C(F)(F)F)c(-c2ccc(S(=O)(=O)NCc3c[nH]c4ncccc34)s2)n1 [Compound P-0041] gave an IC50 (MAPKAPK2) of no more than 10 µM and an IC50 (Zap70) of no more than 10 µM.
For Fc1cc(F)cc(-c2ccnc3[nH]cc(Sc4ccccn4)c23)c1 [Compound P-0106], the IC50 (MAPKAPK2) was no more than 10 µM.
OCCOc1ccc(F)c(Cc2c[nH]c3ncc(-c4cccnc4)cc23)c1F [Compound P-1394, 2-[2,4-Difluoro-3-(5-pyridin-3-yl-1H-pyrrolo[2,3-b]pyridin-3-ylmethyl)-phenoxy]-ethanol] was tested, and the IC50 (ALK) was no more than 10 µM, the IC50 (Csk) was no more than 10 µM and the IC50 (Frk) was no more than 10 µM. The IC50 (Hck) was no more than 10 µM, the IC50 (PDGFRA) was no more than 10 µM and the IC50 (Brk) was no more than 10 µM. For the same compound, the IC50 (Tie2) was no more than 10 µM.
Cc1ccccc1C(=O)c1c[nH]c2nccc(-c3cccc(N)c3)c12 [Compound P-0044] gave an IC50 (Plk1) of no more than 10 µM.
Nc1cccc(-c2ccnc3[nH]cc(C(=O)c4ccccc4F)c23)c1 [Compound P-0022] showed an IC50 (Plk1) of no more than 10 µM.
CCCS(=O)(=O)Nc1ccc(F)c(C(=O)c2c[nH]c3ncc(OC)cc23)c1F [Compound P-0806, Propane-1-sulfonic acid [2,4-difluoro-3-(5-methoxy-1H-pyrrolo[2,3-b]pyridine-3-carbonyl)-phenyl]-amide] was tested, and the IC50 (ALK) was no more than 10 µM, the IC50 (Csk) was no more than 10 µM and the IC50 (Hck) was no more than 10 µM. The IC50 (PDGFRA) was no more than 10 µM, the IC50 (Brk) was no more than 10 µM and the IC50 (Tie2) was no more than 10 µM.
With CCCC(=O)Nc1ccc(F)c(Cc2c[nH]c3ncc(-c4cccnc4)cc23)c1F [Compound P-1280] the IC50 (ALK) was no more than 10 µM, the IC50 (PDGFRA) was no more than 10 µM and the IC50 (Tie2) was no more than 10 µM.
COc1cc(OC)cc(C(=O)c2c[nH]c3ncc(-c4cccc(NS(C)(=O)=O)c4)cc23)c1 [Compound P-1426, N-{3-[3-(3,5-Dimethoxy-benzoyl)-1H-pyrrolo[2,3-b]pyridin-5-yl]-phenyl}-methanesulfonamide] was tested, and the IC50 (ALK) was no more than 10 µM, the IC50 (Csk) was no more than 10 µM and the IC50 (Hck) was no more than 10 µM. For the same compound, the IC50 (PDGFRA) was no more than 10 µM and the IC50 (Tie2) was no more than 10 µM.
In the case of Cc1ccc(S(=O)(=O)NCc2c[nH]c3ncccc23)cc1 [Compound P-0058], the IC50 (MAPKAPK2) is reported as no more than 10 µM and the IC50 (Zap70) is reported as no more than 10 µM.
In the case of O=C(c1cc(O)ccc1F)c1c[nH]c2ncc(-c3cccs3)cc12 [Compound P-0032], the IC50 (Zap70) is reported as no more than 10 µM.
Compound Cc1ccc(F)cc1C(=O)c1c[nH]c2ncc(-c3cccc(N)c3)cc12 [Compound P-0040] has an IC50 (Zap70) of no more than 10 µM.
CS(=O)(=O)Nc1cccc(-c2cnc3[nH]cc(C(=O)c4cccc(O)c4F)c3c2)c1 [Compound P-0038, N-{3-[3-(2-Fluoro-3-hydroxy-benzoyl)-1H-pyrrolo[2,3-b]pyridin-5-yl]-phenyl}-methanesulfonamide] was tested, and the IC50 (Zap70) was no more than 10 µM.
With NC(=O)c1cccc(-c2cnc3[nH]cc(C(=O)c4cccc(O)c4F)c3c2)c1 [Compound P-0034, 3-[3-(2-Fluoro-3-hydroxy-benzoyl)-1H-pyrrolo[2,3-b]pyridin-5-yl]benzamide] the IC50 (Zap70) was no more than 10 µM.
For Nc1cccc(-c2ccnc3[nH]cc(C(=O)c4cc(F)ccc4F)c23)c1 [Compound P-0046], the IC50 (Plk1) was no more than 10 µM.
CCCCNC(=O)Nc1ccc(F)c(C(=O)c2c[nH]c3ncc(-c4cccnc4)cc23)c1F [Compound P-1318, 1-Butyl-3-[2,4-difluoro-3-(5-pyridin-3-yl-1H-pyrrolo[2,3-b]pyridine-3-carbonyl)-phenyl]-urea] gave an IC50 (Frk) of no more than 10 µM, an IC50 (Hck) of no more than 10 µM and an IC50 (Brk) of no more than 10 µM.
For Nc1cccc(-c2cnc3[nH]cc(C(=O)c4cccc(O)c4F)c3c2)c1 [Compound P-0004, [5-(3-amino-phenyl)-1H-pyrrolo[2,3-b]pyridin-3-yl]-(2-fluoro-3-hydroxy-phenyl)methanone], the IC50 (Zap70) was no more than 10 µM.
With COc1cccc(C(=O)c2c[nH]c3ncc(-c4cccc(NC(C)=O)c4)cc23)c1F [Compound P-1336, N-{3-[3-(2-Fluoro-3-methoxy-benzoyl)-1H-pyrrolo[2,3-b]pyridin-5-yl]-phenyl}-acetamide] the IC50 (ALK) was no more than 10 µM, the IC50 (Csk) was no more than 10 µM and the IC50 (Frk) was no more than 10 µM. The IC50 (Hck) was no more than 10 µM, the IC50 (PDGFRA) was no more than 10 µM and the IC50 (Brk) was no more than 10 µM. The IC50 (Tie2) was no more than 10 µM.
CC(=O)Nc1cccc(-c2cnc3[nH]cc(C(=O)c4cccc(O)c4F)c3c2)c1 [Compound P-0035, N-{3-[3-(2-Fluoro-3-hydroxy-benzoyl)-1H-pyrrolo[2,3-b]pyridin-5-yl]-phenyl}-acetamide] showed an IC50 (Zap70) of no more than 10 µM.
